Series [1] in a line: Terminal half life in C57Bl/6 mouse at 5 mg/kg, ip. The class given is ADME, organism-based. On the set-up: dose 5 mg/kg, route intraperitoneal. Particulars: in vivo, read-out: beta t1/2 (converted).
Series [2] can be described thus: Metabolic stability of the compound in human liver microsomes assessed as compound remaining at 10 uM after 15 mins. The class given is ADME. Particulars: read-out: Stability.
Series [3] can be described thus: Cmax in C57Bl/6 mouse at 5 mg/kg, ip. On the set-up: dose 5 mg/kg, route intraperitoneal. In kind it is ADME, organism-based. Particulars: in vivo.
A short description of series [4]: Metabolic stability of the compound in human liver microsomes assessed as compound remaining at 10 uM after 60 mins. The class given is ADME. Particulars: read-out: Stability. (In general: Liver microsomes are vesicles of endoplasmic reticulum, rich in cytochrome P450 enzymes.)
The nature of series [5]: Metabolic stability of the compound in mouse liver microsomes assessed as compound remaining at 10 uM after 15 mins. The class given is ADME. To be noted: read-out: Stability.
A short description of series [6]: Cmax in C57Bl/6 mouse at 10 mg/kg, po. In kind it is ADME, organism-based. On the set-up: dose 10 mg/kg, route oral. To be noted: in vivo.
The nature of series [7]: Metabolic stability of the compound in mouse liver microsomes assessed as compound remaining at 10 uM after 30 mins. In kind it is ADME. Particulars: read-out: Stability.
Series [8] has as its target Prostaglandin E2 receptor EP2 subtype (Homo sapiens) (UniProt P43116). Put plainly: Competitive antagonist activity at human EP2 receptor assessed as inhibition of PGE2-induced response.
Series [9] can be described thus: AUClast in C57Bl/6 mouse at 5 mg/kg, ip. The class given is ADME, organism-based. Set-up: time 0 - last, dose 5 mg/kg, route intraperitoneal. Particulars: plasma.
A short description of series [10]: Metabolic stability of the compound in mouse liver microsomes assessed as compound remaining at 10 uM after 60 mins. In kind it is ADME. Particulars: read-out: Stability.
Series [11] in a line: Aqueous solubility of the compound by nephelometry method. The class given is physicochemical. To be noted: buffer.
Series [12] can be described thus: Cytotoxicity against rat C6 cells. The class given is cell-based. Particulars: C6 cells.
Series [13] can be described thus: AUC (infinity) in C57Bl/6 mouse at 5 mg/kg, ip. To be noted: plasma. Set-up: time infinity, dose 5 mg/kg, route intraperitoneal. In kind it is ADME, organism-based.
Series [14] addresses T1, Prostaglandin D2 receptor (Homo sapiens) (UniProt Q13258).
T1 sequence (whole entry): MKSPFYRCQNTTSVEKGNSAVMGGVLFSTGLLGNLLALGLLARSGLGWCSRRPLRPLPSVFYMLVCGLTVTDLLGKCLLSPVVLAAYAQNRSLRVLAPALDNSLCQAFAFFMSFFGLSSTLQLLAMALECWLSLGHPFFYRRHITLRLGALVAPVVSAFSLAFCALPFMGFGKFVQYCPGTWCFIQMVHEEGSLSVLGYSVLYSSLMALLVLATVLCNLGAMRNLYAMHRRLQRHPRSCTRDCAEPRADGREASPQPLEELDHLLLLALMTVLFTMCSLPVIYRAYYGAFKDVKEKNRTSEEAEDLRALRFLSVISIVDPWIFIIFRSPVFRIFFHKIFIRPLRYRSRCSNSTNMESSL
Put plainly: Antagonist activity at DP1 receptor (unknown origin) expressed in rat C6 cells by TR-FRET assay. In kind it is cell-based. (TR-FRET usually uses a lanthanide donor and a delayed reading to cut background.)

The nature of series [15]: Metabolic stability of the compound in human liver microsomes assessed as compound remaining at 10 uM after 30 mins. The class given is ADME. Particulars: read-out: Stability.
The species named for series [16] is Homo sapiens. Put plainly: Selectivity index, ratio of KB for EP4 receptor (unknown origin) to KB for EP2 receptor (unknown origin).
The subject of another series is EP2 receptor. Description: Therapeutic index, ratio of CC50 for rat C6 cells to KB for EP2 receptor (unknown origin). The class given is cell-based. To be noted: read-out: TI.
Series [17] deals with Prostaglandin E2 receptor EP4 subtype (Homo sapiens) (UniProt P35408). Put plainly: Antagonist activity at EP4 receptor (unknown origin) expressed in rat C6 cells assessed as inhibition of PGE2-induced response. In kind it is cell-based.
In series [18] the target is Prostaglandin E2 receptor EP2 subtype (Homo sapiens) (UniProt P43116). Put plainly: Antagonist activity at EP2 receptor (unknown origin) expressed in rat C6 cells assessed as inhibition of PGE2-induced response. In kind it is cell-based.
The species named for series [19] is Homo sapiens. Put plainly: Selectivity index, ratio of KB for DP1 receptor (unknown origin) to KB for EP2 receptor (unknown origin).

Each structure is given as a SMILES string. Converted amounts (≈) assume the structure as drawn.

Prostaglandin E2 receptor EP2 subtype (Homo sapiens), sequence (P43116 whole entry): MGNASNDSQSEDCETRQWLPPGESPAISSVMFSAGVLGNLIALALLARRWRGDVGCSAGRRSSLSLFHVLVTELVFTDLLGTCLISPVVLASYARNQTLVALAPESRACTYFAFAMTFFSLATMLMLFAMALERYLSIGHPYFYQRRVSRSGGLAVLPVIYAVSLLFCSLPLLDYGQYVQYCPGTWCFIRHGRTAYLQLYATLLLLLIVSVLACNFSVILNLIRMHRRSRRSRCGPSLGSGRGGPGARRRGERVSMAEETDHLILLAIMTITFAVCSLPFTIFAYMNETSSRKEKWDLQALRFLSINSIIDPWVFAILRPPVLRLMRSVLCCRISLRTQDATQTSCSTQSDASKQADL
Prostaglandin E2 receptor EP4 subtype (Homo sapiens), sequence (P35408 whole entry): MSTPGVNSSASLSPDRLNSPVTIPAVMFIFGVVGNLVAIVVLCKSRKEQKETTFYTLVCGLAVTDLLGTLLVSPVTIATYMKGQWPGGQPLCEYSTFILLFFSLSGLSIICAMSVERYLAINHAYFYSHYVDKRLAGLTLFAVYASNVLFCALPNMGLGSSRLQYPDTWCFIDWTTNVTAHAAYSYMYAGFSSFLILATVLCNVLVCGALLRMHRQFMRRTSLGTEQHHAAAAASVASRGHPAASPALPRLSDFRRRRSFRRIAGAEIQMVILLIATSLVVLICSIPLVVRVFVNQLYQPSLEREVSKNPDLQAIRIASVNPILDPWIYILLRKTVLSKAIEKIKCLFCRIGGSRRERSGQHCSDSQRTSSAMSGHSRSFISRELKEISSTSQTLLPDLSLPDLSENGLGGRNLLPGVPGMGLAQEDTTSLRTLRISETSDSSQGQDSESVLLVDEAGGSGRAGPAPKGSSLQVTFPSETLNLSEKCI

On to `Cc1cc2ccccc2n1CCNC(=O)c1ccc(-c2nnn[nH]2)cc1`, for which the half-life in series [1] was 18 min. In addition, the remaining at […], 10 µM in series [2] worked out at 96%; in series [5], 85%. For the same compound, the Cmax in series [3] was determined as 2040 ng/mL; in [6] it was 134 nM. Also, the remaining at 1 h, 10 µM in series [4] was determined as 73%; in [10], 57%. For the same compound, the remaining at 0.5 h, 10 µM worked out at 75% in [7] and 87% in [15]. Further, the results for the Kb in series [8] and in series [14] were 16.4 nM and 660 nM, respectively. In addition, in series [9], the AUC(0-t) was determined as 1580 ng·h/mL. In series [11], this compound registered a kinetic solubility of 257 µM (≈ 89 µg/mL). In series [12], the CC50 is more than 300000 nM. In series [13], this compound yielded an AUC(0-inf) of 1600 ng·h/mL.

For the compound `CCN(CC)c1ccc(C(=O)NCCc2c(C)[nH]c3ccccc23)cc1`, the Ratio in the series listed under Homo sapiens [16] was 6940; in the series listed under Homo sapiens [19], 1370. Besides, in the series on EP2 receptor, the selectivity ratio was more than 72500. Moreover, the Kb amounted to 48000 nM in [17], 6.9 nM in series [18], 16.3 nM in [8] and 9480 nM in series [14]. Further, the remaining at […], 10 µM in [2] worked out at 40%; in series [5], 34%. Moreover, the remaining at 1 h, 10 µM in series [4] and in [10] was 5% throughout. The remaining at 0.5 h, 10 µM in [7] amounted to 19%; in series [15], 20%. In [11], this compound gave a kinetic solubility of less than 25 µM. The same compound gave a CC50 in [12] of more than 500000 nM.

Broadly, the Cmax is the highest concentration seen after dosing. The term Kb denotes the equilibrium dissociation constant of an antagonist, usually derived from a functional assay. A word on the AUC(0-t): it is the area under the concentration-time curve up to a stated or last time point. As usually defined, the solubility (kinetic) is the concentration staying in solution when a stock, usually in DMSO, is diluted into the medium. The term CC50 denotes the concentration at which the toxic effect on the cells reaches its halfway point. Higher therefore signals lower toxicity to the cells. By AUC(0-inf) is commonly meant total exposure, with the tail of the curve extrapolated.

Values taken from ChEMBL document CHEMBL3286257, “Development of second generation EP2 antagonists with high selectivity” (Eur J Med Chem, 2014).
